Structures can show the parent of a compound that is named as a salt. Where two headings read alike, the source gives them in different places.
How the values were obtained:
Mia-Pa-Ca-2 = assay: CellTiterGlo cell viability assay, Mia-Pa-Ca-2; format: cell-based; conditions: Homo sapiens, MIA PaCa-2, Mia-Pa-Ca-2, 72 h; for EC50: absolute EC50, read-out: Ab EC50; for inhibition at 198 µM: percentage inhibition at the highest concentration tested, read-out: Top Inhibit
Method: A subset of compounds of the invention were assayed for their cytotoxic activity in an array of different solid tumours and haematological malignancies using the following assay.
In vitro viability assay were performed to assess the effects of compounds on cell viability in selected cell lines over 72 h using the CellTiterGlo (CTG, Promega-G7573) assay. The tests were performed in duplicates with treatment of compounds at 9 points, 3.16 folds titration in 96 well plates over ˜72 h. The compound starting concentrations were 198 μM. Cell viability assay using CellTiterGlo in 96-well plate were performed. Compound treatment 72 h, standard growth conditions, duplicates. Compounds were dissolved to 40 mM with thawed […]. Compounds were serially diluted at 3.16 fold in thawed DMSO, and warmed to 37° C. before being dissolved in media (2 μL+200 μL). After compounds were dissolved in media, media containing compounds were warmed to 37° C. in incubator and then compounds in media were added to cell plates (50 μL+50 μL) in duplicates. The compounds' final concentrations were from 198 μM to 19.8 nM. All compound solubilities were checked and recorded again, then the plates were transferred to CO2 tissue culture incubator immediately and incubated for 3 days. DMSO final concentration is 0.5%. The parent nucleoside in each case was tested as a comparator, as was an exemplary ProTide. The drugs of the ProTide class that were tested were as follows:
The following cell lines were tested and are referred to in the Table 1 below:
In Tables 2, 3 and 4, ‘Ab EC50’ refers to the absolute EC50 and ‘Top inhibit’ refers to the percentage inhibition achieved at the highest concentration tested.

HT29 = assay: CellTiterGlo cell viability assay, HT29; format: cell-based; conditions: Homo sapiens, HT29, 72 h; for EC50: absolute EC50, numeric values, read-out: Ab EC50; for inhibition at 198 µM: percentage inhibition at the highest concentration tested, read-out: Top Inhibit
In short: (§1)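 Cell viability was measured by CellTiterGlo luminescence after ~72 h compound exposure under standard growth conditions. Compounds were tested in duplicate at 9 points, 3.16-fold dilutions, final concentrations 198 μM to 19.8 nM, 0.5% DMSO final; absolute EC50 and percentage inhibition at top concentration were reported.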

HepG2 = assay: CellTiterGlo cell viability assay, HepG2; format: cell-based
In short: as §1

OVCAR 3 = assay: CellTiterGlo cell viability assay, OVCAR 3; format: cell-based; conditions: Homo sapiens; for inhibition at 198 µM: percentage inhibition at the highest concentration tested, read-out: Top Inhibit; for EC50: absolute EC50, numeric values, read-out: Ab EC50
In short: as §1

MCF-7 = assay: CellTiterGlo cell viability assay, MCF-7; format: cell-based; conditions: Homo sapiens, MCF-7, 72 h; for EC50: absolute EC50, numeric values, read-out: Ab EC50; for inhibition at 198 µM: percentage inhibition at the highest concentration tested, read-out: Top Inhibit
In short: as §1

CCRF-CEM = assay: CellTiterGlo cell viability assay, CCRF-CEM; format: cell-based; conditions: Homo sapiens, 72 h; for EC50: absolute EC50, numeric values, read-out: Ab EC50; for inhibition at 198 µM: percentage inhibition at the highest concentration tested, read-out: Top Inh
In short: as §1

RPMI-8226 = assay: CellTiterGlo cell viability assay, RPMI-8226; format: cell-based, Human
In short: as §1

in vitro = conditions: human, pH 7.3; for half-life: hepatocytes
MOLT-4 = assay: CellTiterGlo cell viability assay, MOLT-4; format: cell-based; conditions: Homo sapiens, MOLT-4, 72 h; for inhibition at 198 µM: percentage inhibition at the highest concentration tested, read-out: Top Inh; for EC50: absolute EC50, numeric values, read-out: Ab EC50
In short: as §1

K562 = assay: CellTiterGlo cell viability assay, K562; format: cell-based; conditions: Homo sapiens, K562, 72 h; for inhibition at 198 µM: percentage inhibition at the highest concentration tested, read-out: Top Inh; for EC50: absolute EC50, numeric values, read-out: Ab EC50
In short: as §1

HL-60 = assay: CellTiterGlo cell viability assay, HL-60; format: cell-based; conditions: Homo sapiens, HL-60, 72 h; for EC50: absolute EC50, numeric values, read-out: Ab EC50; for inhibition at 198 µM: percentage inhibition at the highest concentration tested, read-out: Top Inh
In short: as §1

RL = assay: CellTiterGlo cell viability assay, RL; format: cell-based; conditions: Homo sapiens, 72 h; for EC50: absolute EC50, numeric values, read-out: Ab EC50; for inhibition at 198 µM: percentage inhibition at the highest concentration tested, read-out: Top Inh
In short: as §1

[1] = Homo sapiens, HepG2, 72 h, absolute EC50, numeric values, read-out: Ab EC50
[2] = Homo sapiens, HepG2, 72 h, percentage inhibition at the highest concentration tested, read-out: Top Inhibit
[3] = Homo sapiens, RPMI-8226, 72 h, absolute EC50, numeric values, read-out: Ab EC50
[4] = Homo sapiens, RPMI-8226, 72 h, percentage inhibition at the highest concentration tested, read-out: Top Inh

| Structure (SMILES) | EC50 (Mia-Pa-Ca-2) [nM] | inhibition at 198 µM (Mia-Pa-Ca-2) [%] | EC50 (HT29; HT-29, 72 h) [nM] | inhibition at 198 µM (HT29; HT-29, 72 h) [%] | EC50 (HepG2; [1]) [nM] | inhibition at 198 µM (HepG2; [2]) [%] | inhibition at 198 µM (OVCAR 3; OVCAR-3, 72 h) [%] | EC50 (OVCAR 3; OVCAR 3, 72 h) [nM] | EC50 (MCF-7; MCF7, 72 h) [nM] | inhibition at 198 µM (MCF-7; MCF7, 72 h) [%] | EC50 (CCRF-CEM) [nM] | inhibition at 198 µM (CCRF-CEM) [%] | EC50 (RPMI-8226; [3]) [nM] | inhibition at 198 µM (RPMI-8226; [4]) [%] | half-life (in vitro) [min] | inhibition at 198 µM (MOLT-4) [%] | EC50 (MOLT-4) [nM] | inhibition at 198 µM (K562) [%] | EC50 (K562) [nM] | EC50 (HL-60) [nM] | other results |
| --- | --- | --- | --- | --- | --- | --- | --- | --- | --- | --- | --- | --- | --- | --- | --- | --- | --- | --- | --- | --- | --- |
| C[C@H](NP(=O)(Oc1cccc2ccccc12)OP(=O)(O)OC[C@H]1O[C@@H](n2cc(F)c(=O)[nH]c2=O)CC1O)C(=O)OCc1ccccc1 (stereo partly drawn) [Example 4, 5-Fluoro-2′-deoxyuridine-5′-O-[1-naphthyl-(benzoxy-L-alaninyl)] Diphosphate Triethylammonium Salt] | 110 | 67 | 250 | 77 | > 198000 | 48 | 67.5 | 2810 | 15800 | 66 | 30 | 97.1 | 50 | 95 | 15 | – | – | – | – | – | – |
| C[C@H](NP(=O)(Oc1cccc2ccccc12)OP(=O)(O)OC[C@H]1O[C@@H](n2c(Cl)nc3c(N)ncnc32)[C@@H](O)C1O)C(=O)OCc1ccccc1 (stereo partly drawn) [Example 5, 8-Chloroadenosine-5′-O-[1-naphthyl-(benzoxy-L-alaninyl)]diphosphate Triethylammonium Salt] | 430 | 87.6 | 1410 | 76.5 | – | – | – | – | 1690 | 88 | – | – | – | – | 18 | – | – | – | – | – | – |
| C[C@H](NP(=O)(Oc1ccccc1)OP(=O)(O)OC[C@@H]1C[C@H](OP(=O)(O)OP(=O)(N[C@@H](C)C(=O)OCc2ccccc2)Oc2ccccc2)[C@H](n2cnc3c(N)ncnc32)O1)C(=O)OCc1ccccc1 (stereo partly drawn) [Example 7, 3′-Deoxyadenosine-5′,2′-Bis-O-[phenyl(benzoxy-L-alaninyl)]-diphosphate Triethylammonium Salt] | 3320 | 98.9 | 7790 | 79 | – | – | – | – | – | – | – | – | 1600 | 98 | 27 | 90 | 25300 | 94 | 9160 | 6970 | inhibition at 198 µM (HL-60): 100%; EC50 (RL): 11100 nM; inhibition at 198 µM (RL): 93% |
| C[C@H](NP(=O)(Oc1ccccc1)OP(=O)(O)OC[C@H]1O[C@@H](n2ccc(N)nc2=O)C(F)(F)C1O)C(=O)OCc1ccccc1 (stereo partly drawn) [Example 8, 2′-Deoxy-2′,2′-difluoro-D-cytidine-5′-O-[phenyl(benzoxy-L-alaninyl)] Diphosphate Triethylammonium Salt] | 70 | 79 | 480 | 62 | 83100 | 52 | 48.5 | > 198000 | 70 | 52 | 40 | 99.9 | – | – | 27 | 84 | 9 | 29 | > 198000 | 80 | inhibition at 198 µM (HL-60): 98%; EC50 (RL): 200 nM; inhibition at 198 µM (RL): 66.5% |
| O=c1[nH]c(=O)n([C@H]2C[C@H](O)[C@@H](CO)O2)cc1F [FUDR, 5-fluoro-2′-deoxyuridine, reference compound] | 350 | 90 | – | – | – | – | – | 2320 | – | – | 40 | 91.9 | – | – | – | – | – | – | – | – | EC50 (HT29; HT-29): 220 nM; inhibition at 198 µM (HT29; HT-29): 82%; EC50 (HepG2; Homo sapiens; HepG2, 72 h, absolute EC50, numeric values; read-out: Ab EC50): 84000 nM; inhibition at 198 µM (HepG2; Homo sapiens; HepG2, 72 h, percentage inhibition at the highest concentration tested; read-out: Top Inhibit): 61%; inhibition at 198 µM (OVCAR 3; OVCAR 3, 72 h): 66%; EC50 (MCF-7; MCF7): 7230 nM; inhibition at 198 µM (MCF-7; MCF7): 73%; EC50 (RPMI-8226; Homo sapiens; RPMI-8226, 72 h, absolute EC50, numeric values; read-out: Ab EC50): 110 nM; inhibition at 198 µM (RPMI-8226; Homo sapiens; RPMI-8226, 72 h, percentage inhibition at the highest concentration tested; read-out: Top Inh): 99%; half-life at 1 μM (in vitro; pooled cryopreserved hepatocytes): 69 min |

Reference: US11560400B2, “Salts of diphosphate phosphoramidate of nucleosides as anticancer compounds” (NuCana plc, priority 2017, dated 2023)
